Test results as given in US20100222282A1, “METHOD OF DIAGNOSIS AND METHOD OF TREATMENT” (ENTRESS AB, priority 2006, published 2010).

Assays:
[1] = test system: Sprague-Dawley rats (2-3 years old); conditions: experimental groups, 8 weeks
Description: (§1) The aim of this experiment was to study the relationship between the blood level of AKG and survival of elderly rats. Forty Sprague-Dawley rats randomly chosen (2-3 years old) from the Department of Cell & Organisms Biology in Lund University were used in the experiment. The rats were divided into four groups, 10 rats each, two control groups and two experiment groups. […] The mixtures were titrated with 0.01 M NaOH to correct the pH.
(§2) Blood samples were taken at the beginning of the experiment from all rats and blood AKG levels were estimated. Experimental time was 8 weeks and parameters as AKG blood levels and survival were monitored.

[2] = rats of the experimental groups
Description: as §1, §2

O=C([O-])CCC(=O)C(=O)[O-].[Na+].[Na+] [Na2AKG * 2H2O, sodium alpha-ketoglutarate]
Survival of rats with initially low blood AKG (under 0.1 μg/ml) [1]: did survive the whole experiment | Blood levels of AKG after oral feeding [2]: over 0.5 μg/ml
